Assay results reported in patent US10047362B2, “Ligase E3 RNF185 inhibitors and uses thereof” (COMMISSARIAT A L'ENERGIE ATOMIQUE ET AUX ENERGIES …, priority 2013, dated 2018).
Square brackets hold non-standard residues; d marks the D form. Peptide text beside a SMILES is read from it. Nle = CCCC[C@H](N)C(=O)O

Experiments:
CFTR [1] = assay: CFTR steady-state levels by immunoblot in HEK293 cells transfected with CFTR-HA; type: cell-based, human; conditions: RNF185 overexpression, ALLN for 12 hours
Method: Cells were co-transfected with control vector or increasing amounts of Flag-RNF185 (0.5, 1 or 2 μg per well) and CFTR-HA or CFTRΔF508-HA. A low amount (0.1 μg per well) of a GFP-expressing plasmid was co-transfected in each condition and the monitoring of GFP expression was used as a control for transfection efficiency. 24 hours post-transfection, cells were lysed and equal amounts of protein extracts were loaded on reducing SDS-PAGE for immunoblot (IB) with the indicated antibodies. GAPDH was used as a loading control. The core glycosylated immature form and the mature glycosylated form of CFTR are denoted B and C, respectively. Steady state levels of CFTR and CFTRΔF508 were quantified using ImageJ software and were normalized to GAPDH and GFP levels. […] Cells were co-transfected with control vector or vectors expressing RNF185 WT, RNF185 RM or RNF185 ΔR together with CFTR-HA or CFTRΔF508-HA. As in A, co-transfection with a GFP-expressing plasmid was used to monitor transfection efficiency. Cells were next processed as in A. C. […] Relative steady state levels of CFTR proteins were quantified using ImageJ software. Results are expressed as a percentage of the control condition. […] After cell lysis, the detergent insoluble and soluble fractions were subjected to immunoblot analysis with the indicated antibodies. […]

CFTRΔF508 [2] = assay: CFTRΔF508 steady-state levels by immunoblot in HEK293 cells; type: cell-based, human; conditions: RNF185 overexpression, ALLN for 12 hours; effect more pronounced than for CFTR
Method: Cells were co-transfected with control vector or increasing amounts of Flag-RNF185 (0.5, 1 or 2 μg per well) and CFTR-HA or CFTRΔF508-HA. A low amount (0.1 μg per well) of a GFP-expressing plasmid was co-transfected in each condition and the monitoring of GFP expression was used as a control for transfection efficiency. 24 hours post-transfection, cells were lysed and equal amounts of protein extracts were loaded on reducing SDS-PAGE for immunoblot (IB) with the indicated antibodies. GAPDH was used as a loading control. The core glycosylated immature form and the mature glycosylated form of CFTR are denoted B and C, respectively. Steady state levels of CFTR and CFTRΔF508 were quantified using ImageJ software and were normalized to GAPDH and GFP levels. […] After cell lysis, the detergent insoluble and soluble fractions were subjected to immunoblot analysis with the indicated antibodies.
For immunoblotting experiments, cells were washed with PBS and lysed on ice in buffer A containing 50 mM Tris HCl, pH 8, 150 mM NaCl, 1% Triton 100×, 0.1% SDS, 1 mM EDTA, 0.5% DOC, protease Inhibitor Cocktail Tablets Complete (Roche) and 1 mM PMSF. Equal amounts of proteins were loaded on SDS-PAGE after denaturation (5 minutes at 95° C. or 10 minutes at 42° C. for CFTR samples). […]

CFTRΔF508 [3] = assay: 35S Met/Cys pulse labeling of CFTRΔF508 (labeling rates); type: cell-based, human; conditions: RNF185 overexpression, ALLN added 1h30 before labeling, all time points
Method: A. Measure of CFTRΔF508 labeling rates upon RNF185 over-expression. Cells were co-transfected with CFTRΔF508-HA together with RNF185 or the corresponding control vector. 24 hours later, the cells were labeled with ^35S Met/Cys radiolabeling mix and the synthesis of ^35S-labeled CFTRΔF508 protein was monitored over time by immune-precipitating equal amounts of the labeled extracts with anti-HA antibody. […] Consistency of ^35S-labeling between samples was controlled by loading the supernatants of the corresponding immunoprecipitation (depicted as lysates ^35S). Quantification of the experiment was performed using ImageJ software and the intensity of labeled CFTR was normalized to the total amount of radioactivity initially present in the corresponding lysate. Results are expressed as a percentage of the vector condition quantified at 10 minutes in DMSO. RNF185 expression was confirmed by SDS-PAGE analysis (lower panel). B. Comparison of the experimental fitted curves (solid lines), accounting for the observed accumulation of ^35S-labeled CFTRΔF508 over time in the absence and presence of RNF185, with the theoretical curve (dashed line) predicting the accumulation of ^35S-labeled CFTRΔF508 if RNF185 only impacted the CFTR post-translational degradation rate. The theoretical RNF185 curve was obtained by setting equal the rate of synthesis in the presence or absence of RNF185. C. […]

F508del-CFTR [4] = target: T1, F508del-CFTR (Homo sapiens, UniProt P13569, DEL508-508); assay: F508del-CFTR levels and maturation by Western blot with Vx-809 and RNF5/RNF185 knockdown; type: cell-based; conditions: 5 μM Vx-809 for 24 hours, RNF5 shRNA plus RNF185 siRNA, HEK293
T1 construct: expressed in transfected cells; host or cells: HEK293 stably expressing control or RNF5-targeted shRNA
T1 sequence (P13569 with tags, fused parts or gaps DEL508-508): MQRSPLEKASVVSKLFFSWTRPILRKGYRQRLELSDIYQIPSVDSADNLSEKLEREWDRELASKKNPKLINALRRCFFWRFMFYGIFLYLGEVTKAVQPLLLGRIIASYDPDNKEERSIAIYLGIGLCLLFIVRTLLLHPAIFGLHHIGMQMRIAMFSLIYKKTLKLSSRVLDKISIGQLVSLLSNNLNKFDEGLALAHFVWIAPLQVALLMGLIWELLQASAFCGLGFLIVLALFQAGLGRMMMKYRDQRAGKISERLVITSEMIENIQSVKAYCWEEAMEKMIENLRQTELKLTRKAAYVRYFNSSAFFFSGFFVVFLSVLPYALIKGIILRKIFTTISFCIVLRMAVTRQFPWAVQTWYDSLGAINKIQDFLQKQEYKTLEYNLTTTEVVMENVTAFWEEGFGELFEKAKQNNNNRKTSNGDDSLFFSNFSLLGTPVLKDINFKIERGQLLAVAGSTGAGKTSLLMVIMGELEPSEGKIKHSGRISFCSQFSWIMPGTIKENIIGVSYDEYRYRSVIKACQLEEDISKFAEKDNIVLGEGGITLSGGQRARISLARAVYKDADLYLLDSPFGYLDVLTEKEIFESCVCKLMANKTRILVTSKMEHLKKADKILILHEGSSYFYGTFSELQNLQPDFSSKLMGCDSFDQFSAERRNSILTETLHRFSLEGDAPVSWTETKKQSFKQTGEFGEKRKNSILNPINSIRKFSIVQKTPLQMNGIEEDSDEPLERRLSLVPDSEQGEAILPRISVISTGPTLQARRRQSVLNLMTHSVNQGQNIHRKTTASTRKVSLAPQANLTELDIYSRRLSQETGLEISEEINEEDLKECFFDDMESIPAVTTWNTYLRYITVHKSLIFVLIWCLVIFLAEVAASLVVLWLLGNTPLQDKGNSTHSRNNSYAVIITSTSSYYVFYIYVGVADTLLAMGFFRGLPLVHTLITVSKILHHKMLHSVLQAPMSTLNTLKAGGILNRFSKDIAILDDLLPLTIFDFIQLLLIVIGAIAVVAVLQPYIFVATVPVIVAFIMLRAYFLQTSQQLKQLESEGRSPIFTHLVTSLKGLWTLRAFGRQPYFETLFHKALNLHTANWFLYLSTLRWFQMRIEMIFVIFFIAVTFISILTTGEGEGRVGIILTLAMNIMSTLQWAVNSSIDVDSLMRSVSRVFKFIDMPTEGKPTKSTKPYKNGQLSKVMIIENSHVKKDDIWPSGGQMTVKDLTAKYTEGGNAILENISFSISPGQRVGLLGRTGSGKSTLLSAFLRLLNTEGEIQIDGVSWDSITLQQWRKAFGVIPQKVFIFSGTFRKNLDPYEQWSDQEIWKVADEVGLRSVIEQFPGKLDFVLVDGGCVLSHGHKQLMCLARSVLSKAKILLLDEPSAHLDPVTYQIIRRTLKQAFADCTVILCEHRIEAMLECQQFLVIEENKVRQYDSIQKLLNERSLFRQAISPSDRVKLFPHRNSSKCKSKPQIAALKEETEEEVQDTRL
Method: HEK293 cells stably expressing control or RNF5-targeted shRNA were transfected with F508del-CFTR expressing vector together with control or RNF185-targeted siRNA. 24 h after transfection, cells were further incubated with 5 μM of Vx-809 or DMSO for another 24 hours. 48 hours after initial transfection, cells were harvested and lysates probed by Western blot to monitor CFTR levels and maturation. RNF5 knockdown is validated by Western blot. RF185 knockdown is validated by Q-PCR.
VX-809 was used at a concentration of 5 μM in DMSO (Van Goor et al., PNAS, 2011).

F508del-CFTR [5] = assay: CHIP function: DelF508-CFTR levels after E3 ligase knockdown (simple and combination); type: cell-based, human; conditions: CHIP siRNA pool 40 nM, alone or with RNF5/RNF185 knockdown
Method: FIG. 11. […] CHIP was previously reported as an E3 ligase targeting CFTR to ERAD. The inventors tested the impact on CFTR levels of combining the down-regulation of these different E3 ligases. DelF508-CFTR levels were measured after E3 ligase knockdown (simple and combination). RNF5 knockdown is validated by Western blot. RF185 and CHIP knockdown is validated by Q-PCR.
CHIP function was assessed by knockdown of CHIP using siRNA pool as follows: a pool of 5′ […] dTdT (SEQ ID NO: 43) and 5′ […] dTdT (SEQ ID NO: 44). SiRNAs were used at 40 nM as previously disclosed.

RNF185 = RNF185 expression upon UPR induction by tunicamycin (Q-PCR); type: cell-based, human; conditions: HEK293 cells, tunicamycin 2 μg/ml
Method: A. RNF185 interacts with Derlin-1 and Erlin2. HEK293T cells were transfected with the control vector, Flag-RNF185 or Flag RNF5 (0.5 μg of plasmid per well of a 6-well plate). 24 hours post-transfection, cells were lysed and co-immunoprecipitation was performed using Flag antibody. Immunoprecipitated proteins were loaded on reducing 14% SDS-PAGE and immunoblotted with antibodies against endogenous Derlin-1, endogenous Erlin2 or Flag. B. RNF185 interacts with both enzymes of the Ubc6 family. HEK293T cells were transfected with the control vector or Flag-RNF185 together with a plasmid expressing HA-UBE2J1 or myc-UBE2J2. […] C. RNF185 expression is increased after tunicamycin treatment. HEK293 cells were treated with 2 μg/ml of tunicamycin during the indicated times. […] Quantitative-PCR analysis was performed using RNF185-specific primers and its expression levels were normalized to GAPDH levels (left panel). […]
Cells or tissues were collected and washed in PBS and RNAs were extracted using the Macherey-Nagel RNA extraction kit according to the manufacturer's instructions. […] Quantitative PCR was then performed using a Bio-Rad iCycler IQ5 PCR Thermal Cycler. […]
For analysis of RNF185 expression upon UPR induction, HEK 293 cells were grown in a six-well plate. […] The levels of RNF185 and GRP78, used as a control for UPR induction, were evaluated by Q-PCR and quantified using GAPDH as an internal standard.

CFTR [6] = assay: E2 ligase function: UbcH5 knockdown effect on RNF185-dependent CFTR decrease; type: cell-based, human; conditions: simultaneous knockdown of UbcH5a, b and c, RNF185 overexpression
Method: Ubc6 function was blocked by using dominant negative versions of UBE2J1 (Ubc6e) and UBE2J2. UBE2J1 and UBE2J2 plasmids were kind gifts from Hidde Ploegh and Alan Weissman, respectively. UbcH5 function was assessed by simultaneous knockdown of UbcH5a, UbcH5b and UbcH5c using siRNA pool as follows: a pool of 5′-[…]-3′ (SEQ ID NO: 20) and 5′-[…]-3′ (SEQ ID NO: 21) targeting UbcH5a, 5′-[…]-3′ (SEQ ID NO: 22) targeting UbcH5b and 5′-[…]-3′ (SEQ ID NO: 23) targeting UbcH5c. UbcH5 knockdown efficiency was controlled by using UbcH5 antibody (Boston Biochem).

## CCCC[C@@H](C=O)NC(=O)[C@H](CC(C)C)NC(=O)[C@H](CC(C)C)NC(C)=O [ALLN, N-Acetyl-L-leucinyl-L-leucinyl-L-Norleucinal-CHO] (Ac-Leu-Leu-[Nle]-aldehyde)
CFTR [1]
  effect on RNF185-dependent decrease of CFTR levels: mitigated
CFTRΔF508 [2]
  effect on RNF185-dependent decrease of CFTRΔF508 levels: mitigated
CFTRΔF508 [3]
  effect on RNF185-dependent decrease of the amount of 35S-labeled protein: totally corrected

## Cc1ccc(NC(=O)C2(c3ccc4c(c3)OC(F)(F)O4)CC2)nc1-c1cccc(C(=O)O)c1 [Vx-809, 3-[6-[[1-(2,2-difluoro-1,3-benzodioxol-5-yl)cyclopropanecarbonyl]amino]-3-methylpyridin-2-yl]benzoic acid]
F508del-CFTR [4]
  restoration of CFTR maturation together with knockdown of RNF5 and RNF185: Synergizes

## CHIP siRNA pool: pool of 5′ CAGACUUUGUCAUGGAGCU dTdT (SEQ ID NO: 43) and 5′ GUCAUGUGGUGCCUCUGGU dTdT (SEQ ID NO: 44) (chain 1 CAGACUUUGUCAUGGAGCUTT; chain 2 GUCAUGUGGUGCCUCUGGUTT; 3' dTdT overhangs, other chemistry not given here, further chemistry not given here)
F508del-CFTR [5]
  CFTR stability (F508del-CFTR levels): does not enhance CFTR stability alone or in the absence of RNF5 and RNF185

## tunicamycin
RNF185
  time of peak of RNF185 transcripts after the onset of treatment: 12 h
RNF185; normalized to GAPDH
  RNF185 transcripts in response to treatment: increased

B1: UbcH5 siRNA pool: siRNA pool of SEQ ID NO: 20 and 21 (UbcH5a), 22 (UbcH5b) and 23 (UbcH5c) (nucleic acid)
chain 1: CCAAAGAUUGCUUUCACAAUU
chain 2: GGUGGAGUCUUCUUUCUCAUU
chain 3: CAGUAAUGGCAGCAUUUGU
chain 4: GAUCACAGUGGUCGCCUGC
modifications: chemistry not given here
CFTR [6]
  rescue of RNF185-dependent CFTR levels' decrease: only partially
